# Laboratory results from US7259140B2, “Heparin-binding peptides and uses thereof” (Thomas Jefferson University, priority 2003, dated 2007).
# Ends that are not written are not given here.
# Tests used:
# [1] = test system: platelets; test: Platelet aggregation with aggregation-inducing agents; format: cell-based, human; conditions: 12 μg/ml; Lovenox 0.5 U/ml; collagen, ADP, ristocetin, epinephrine, SFFLRN, A23187
# Procedure: Plasma from six volunteers was tested with various aggregation inducing agents, at several concentrations of each agent, and with six different peptides of the invention. The effect of heparin-binding peptides of the invention on platelet aggregation was determined using standard procedures as previously described. The six peptides which were synthesized and tested were: (ARKKAAKA)4 (SEQ ID NO:31), ARKKAAKA(A16)ARKKAAKA (SEQ ID NO:30), (ARKKAAKA)3ARKKCAKA (SEQ ID NO:33), (ARKKAAKA)3VLVLVLVL (SEQ ID NO:5), C(ARKKAAKA)4C (SEQ ID NO:34), and (AKKARA)6 (SEQ ID NO:32).
# The aggregation-inducing agents tested were: collagen, adenosine diphosphate (ADP), ristocetin, epinephrine, the thrombin receptor peptide SFFLRN, and calcium ionophore A23187. Platelets were subjected to protamine, or to SEQ ID NOS:31, 33, 30, 5, 34, or 32 at 12 μg/ml, and Lovenox® at 0.5 U/ml. Platelet aggregation in response to agonists was monitored and percent aggregation was determined over a five minute interval.
# The agonist was added after equilibration of the platelets for one minute.
# [2] = test system: anti-Factor Xa Activity of Unfractionated Heparin; test: Anti-Factor Xa assay: neutralization of unfractionated heparin in citrate or plasma in vitro; format: biochemical, human; conditions: for Unfractionated Heparin Neutralized: UFH 0.7 U/ml
# Procedure: (§1) The ability of peptides such as (ARKKAAKA)3VLVLVLVL (SEQ ID NO:5) to neutralize the anti-Factor Xa activity of UFH and LMWH in vitro was tested using the Stachrom Heparin kit (Diagnostica Stago), a standard hematology laboratory assay used to measure the anti-Factor Xa activity of heparin. The assay was performed using the low molecular weight heparin enoxaparin sodium (Lovenox®, Aventis Pharmaceuticals, Inc.), unfractionated heparin (UFH), or the non-heparin glycosaminoglycan danaparoid sodium (Orgaran®, Organon Inc., West Orange, N.J.) in 0.32% citrate or in plasma anticoagulated with 0.32% citrate. Enoxaparin is commonly used clinically as a low molecular weight heparin (LMWH). Danaparoid is commonly used clinically as a non-heparin glycosaminoglycan anticoagulant. Currently, the only FDA approved drug to target UFH is protamine, which is not effective in vivo against LMWH or a non-heparin glycosaminoglycan such as danaparoid. Buffer and ATIII are added to form the heparin/ATIII complex, peptide is added, then Factor Xa, reporter dye substrate for Factor Xa activity, and stop solution, and the dye concentration is read at 405 nm. The absorbance of the dye increases with increasing Factor Xa activity, and thus is inversely proportional to the heparin (anti-Factor Xa activity) concentration. Peptides were tested in plasma obtained from three volunteers (A, B, and C). Platelet function inhibitors PG12 and theophylline were added to the blood immediately upon collection. […]
# [3] = Hemodynamic effects in rats without prior Lovenox; conditions: no Lovenox
# Procedure: Rats were sedated, and catheters were inserted into the femoral vein and femoral artery. The femoral artery catheter was hooked up to the computerized monitoring system, and injections were made through the femoral vein. Peptides were injected into rats without prior injection of Lovenox. Two or more rats (300-350 grams) were treated with 2 mg protamine or peptide.
# At the times indicated in the figures, the following actions were taken: administration of saline to insure that the animal and intubations were stable; administration of test peptide or protamine alone; then administration of protamine.
# [4] = test system: unfractionated heparin (thrombin-induced clot formation); test: Thrombin neutralization assay: clotting time of citrated plasma in the presence of unfractionated heparin; format: biochemical, human; conditions: for Time for clot formation: UFH 0.5 IU/ml
# Procedure: It was determined whether heparin-binding peptides of the invention can neutralize unfractionated heparin using the thrombin neutralization assay. The six peptides that were synthesized and used in this Example are: (ARKKAAKA)3VLVLVLVL (SEQ ID NO:5); (ARKKAAKA)(A16)(ARKKAAKA) (SEQ ID NO:30); (ARKKAAKA)4 (SEQ ID NO:31); (AKKARA)6 (SEQ ID NO:32); (ARKKAAKA)3(ARKKCAKA) (SEQ ID NO:33); and cyclized C(ARKKAAKA)4C (SEQ ID NO:34); Citrated plasma was pipetted into a glass tube. Thrombin was added, the tube was manually rotated, and clotting time was determined by observation of clot formation. Normal clotting time is 19-22 seconds.
# As a control, to assess the effect of heparin on clot formation, unfractionated heparin was added to the plasma at 0.5 IU anti-thrombin activity/ml and then thrombin was added. Clotting time in the presence of heparin alone was greater than 3 minutes.
# To test the effect of peptides, heparin and six peptides at the concentrations indicated in Table 4 were added to the plasma, the mixture was allowed to stand at room temperature for 1 minute, and thrombin was added. The time for the clot to form is indicated. Experiments were performed using plasma from three volunteers—A, B, and C.
# [5] = Hemodynamic effects in rats after administration of the LMWH Lovenox; conditions: in the presence of LMWH Lovenox
# Procedure: Next, experiments were performed in which the animals were treated with the peptides after the administration of the LMWH Lovenox®, as would happen in the clinical situation, because binding of peptides to LMWH would be expected to reduce the effects of the peptides on hemodynamic function.
# [6] = test system: Anti-Factor Xa Activity of the Non-Heparin Glycosaminoglycan Orgaran ®; test: Anti-Factor Xa assay: neutralization of Orgaran in citrate or plasma in vitro; format: biochemical, human
# Procedure: as §1
substance,measurement,setting,value
"ARKKAAKAAAAAAAAAAAAAAAAAARKKAAKA [ARKKAAKA(A16)ARKKAAKA, reference compound]",effect on platelet aggregation,[1],no significant inhibition or enhancement of aggregation
same,Unfractionated Heparin Neutralized,"[2]; 1 μg/ml Peptide, A Plasma",0.080 ± 0.050 U/ml
same,Unfractionated Heparin Neutralized,"[2]; 1 μg/ml Peptide, B Plasma",0.0 U/ml
same,Unfractionated Heparin Neutralized,"[2]; 1 μg/ml Peptide, C Plasma",0.0 U/ml
same,Unfractionated Heparin Neutralized,"[2]; 1 μg/ml Peptide, Citrate",0.040 ± 0.017 U/ml
same,Unfractionated Heparin Neutralized,"[2]; 6 μg/ml Peptide, A Plasma",0.045 ± 0.029 U/ml
same,Unfractionated Heparin Neutralized,"[2]; 6 μg/ml Peptide, B Plasma",0.005 ± 0.007 U/ml
same,Unfractionated Heparin Neutralized,"[2]; 6 μg/ml Peptide, C Plasma",0.008 ± 0.012 U/ml
same,Unfractionated Heparin Neutralized,"[2]; 6 μg/ml Peptide, Citrate",0.064 ± 0.020 U/ml
same,Unfractionated Heparin Neutralized,"[2]; 12 μg/ml Peptide, A Plasma",0.026 ± 0.018 U/ml
same,Unfractionated Heparin Neutralized,"[2]; 12 μg/ml Peptide, B Plasma",0.008 ± 0.012 U/ml
same,Unfractionated Heparin Neutralized,"[2]; 12 μg/ml Peptide, C Plasma",0.0 U/ml
same,Unfractionated Heparin Neutralized,"[2]; 12 μg/ml Peptide, Citrate",0.047 ± 0.025 U/ml
same,Unfractionated Heparin Neutralized,"[2]; 60 μg/ml Peptide, A Plasma",0.100 ± 0.021 U/ml
same,Unfractionated Heparin Neutralized,"[2]; 60 μg/ml Peptide, B Plasma",0.084 ± 0.034 U/ml
same,Unfractionated Heparin Neutralized,"[2]; 60 μg/ml Peptide, C Plasma",0.022 ± 0.017 U/ml
same,Unfractionated Heparin Neutralized,"[2]; 60 μg/ml Peptide, Citrate",0.156 ± 0.046 U/ml
same,Unfractionated Heparin Neutralized,"[2]; 120 μg/ml Peptide, A Plasma",0.112 ± 0.036 U/ml
same,Unfractionated Heparin Neutralized,"[2]; 120 μg/ml Peptide, B Plasma",0.084 ± 0.018 U/ml
same,Unfractionated Heparin Neutralized,"[2]; 120 μg/ml Peptide, C Plasma",0.090 ± 0.019 U/ml
same,Unfractionated Heparin Neutralized,"[2]; 120 μg/ml Peptide, Citrate",0.199 ± 0.039 U/ml
same,effect in the anti-Factor Xa assay for UFH,[2]; in both citrate and plasma,minimal effects
same,effect on blood pressure,[3]; 2 mg per rat,did not affect blood pressure
same,effectiveness in thrombin neutralization assay,[4],ineffective
same,Time for clot formation,"[4]; 6.0 μg peptide/0.1 ml, plasma B",55.00 ± 4.08 s
same,Time for clot formation,"[4]; 6.5 μg peptide/0.1 ml, plasma A",76.33 ± 4.19 s
same,Time for clot formation,"[4]; 6.5 μg peptide/0.1 ml, plasma C",48.67 ± 7.72 s
same,Time for clot formation,"[4]; 7.0 μg peptide/0.1 ml, plasma A",61.00 ± 2.94 s
same,Time for clot formation,"[4]; 7.0 μg peptide/0.1 ml, plasma B",85.67 ± 3.30 s
same,Time for clot formation,"[4]; 7.0 μg peptide/0.1 ml, plasma C",47.67 ± 3.77 s
same,Time for clot formation,"[4]; 7.5 μg peptide/0.1 ml, plasma A",58.67 ± 1.89 s
same,Time for clot formation,"[4]; 7.5 μg peptide/0.1 ml, plasma C",180.0 ± 0.00 s
Protamine [reference compound],Unfractionated Heparin Neutralized,"[2]; 1 μg/ml Peptide, A Plasma",0.241 ± 0.026 U/ml
same,Unfractionated Heparin Neutralized,"[2]; 1 μg/ml Peptide, B Plasma",0.268 ± 0.028 U/ml
same,Unfractionated Heparin Neutralized,"[2]; 1 μg/ml Peptide, C Plasma",0.161 ± 0.030 U/ml
same,Unfractionated Heparin Neutralized,"[2]; 1 μg/ml Peptide, Citrate",0.126 ± 0.042 U/ml
same,anti-Factor Xa activity of UFH neutralized,[2]; 6 μg/ml,about 0.4 U/ml
same,Unfractionated Heparin Neutralized,"[2]; 6 μg/ml Peptide, A Plasma",0.442 ± 0.012 U/ml
same,Unfractionated Heparin Neutralized,"[2]; 6 μg/ml Peptide, B Plasma",0.423 ± 0.035 U/ml
same,Unfractionated Heparin Neutralized,"[2]; 6 μg/ml Peptide, C Plasma",0.425 ± 0.012 U/ml
same,Unfractionated Heparin Neutralized,"[2]; 6 μg/ml Peptide, Citrate",0.475 ± 0.017 U/ml
same,Unfractionated Heparin Neutralized,"[2]; 12 μg/ml Peptide, A Plasma",0.466 ± 0.023 U/ml
same,Unfractionated Heparin Neutralized,"[2]; 12 μg/ml Peptide, B Plasma",0.448 ± 0.041 U/ml
same,Unfractionated Heparin Neutralized,"[2]; 12 μg/ml Peptide, C Plasma",0.405 ± 0.035 U/ml
same,Unfractionated Heparin Neutralized,"[2]; 12 μg/ml Peptide, Citrate",0.429 ± 0.010 U/ml
same,Unfractionated Heparin Neutralized,"[2]; 60 μg/ml Peptide, A Plasma",0.380 ± 0.037 U/ml
same,Unfractionated Heparin Neutralized,"[2]; 60 μg/ml Peptide, B Plasma",0.387 ± 0.047 U/ml
same,Unfractionated Heparin Neutralized,"[2]; 60 μg/ml Peptide, C Plasma",0.350 ± 0.019 U/ml
same,Unfractionated Heparin Neutralized,"[2]; 60 μg/ml Peptide, Citrate",0.406 ± 0.023 U/ml
same,Unfractionated Heparin Neutralized,"[2]; 120 μg/ml Peptide, A Plasma",0.372 ± 0.024 U/ml
same,Unfractionated Heparin Neutralized,"[2]; 120 μg/ml Peptide, B Plasma",0.374 ± 0.034 U/ml
same,Unfractionated Heparin Neutralized,"[2]; 120 μg/ml Peptide, C Plasma",0.310 ± 0.024 U/ml
same,Unfractionated Heparin Neutralized,"[2]; 120 μg/ml Peptide, Citrate",0.374 ± 0.030 U/ml
same,reduction/drop of blood pressure,[3]; 2 mg per rat (300-350 grams),25-35 mm Hg
same,onset of blood pressure reduction,[3]; 2 mg per rat,within less than a minute
same,time to nadir of blood pressure,[3]; 2 mg per rat,about 4.5 minutes
same,time to recovery/reversal of blood pressure,[3]; 2 mg per rat,10 to 12 min
same,blood pressure drop,[5],≥ 30 mm Hg
same,duration of blood pressure drop,[5],10 min
same,heart rate nadir,[5],about 80 % of normal
same,rats with blood pressure drop out of rats tested,[5],10 out of 15
same,Orgaran Neutralized,"[6]; 1 μg/ml Peptide, A Plasma",0.027 ± 0.004 U/ml
same,Orgaran Neutralized,"[6]; 1 μg/ml Peptide, B Plasma",0.021 ± 0.007 U/ml
same,Orgaran Neutralized,"[6]; 1 μg/ml Peptide, C Plasma",0.017 ± 0.006 U/ml
same,Orgaran Neutralized,"[6]; 1 μg/ml Peptide, Citrate",0.030 ± 0.015 U/ml
same,Orgaran Neutralized,"[6]; 6 μg/ml Peptide, A Plasma",0.050 ± 0.025 U/ml
same,Orgaran Neutralized,"[6]; 6 μg/ml Peptide, B Plasma",0.040 ± 0.018 U/ml
same,Orgaran Neutralized,"[6]; 6 μg/ml Peptide, C Plasma",0.034 ± 0.021 U/ml
same,Orgaran Neutralized,"[6]; 6 μg/ml Peptide, Citrate",0.093 ± 0.046 U/ml
same,Orgaran Neutralized,"[6]; 12 μg/ml Peptide, A Plasma",0.016 ± 0.013 U/ml
same,Orgaran Neutralized,"[6]; 12 μg/ml Peptide, B Plasma",0.065 ± 0.014 U/ml
same,Orgaran Neutralized,"[6]; 12 μg/ml Peptide, C Plasma",0.043 ± 0.018 U/ml
same,Orgaran Neutralized,"[6]; 12 μg/ml Peptide, Citrate",0.308 ± 0.017 U/ml
same,Orgaran Neutralized,"[6]; 60 μg/ml Peptide, A Plasma",0.140 ± 0.021 U/ml
same,Orgaran Neutralized,"[6]; 60 μg/ml Peptide, B Plasma",0.241 ± 0.032 U/ml
same,Orgaran Neutralized,"[6]; 60 μg/ml Peptide, C Plasma",0.234 ± 0.025 U/ml
same,Orgaran Neutralized,"[6]; 60 μg/ml Peptide, Citrate",0.322 ± 0.038 U/ml
same,Orgaran Neutralized,"[6]; 120 μg/ml Peptide, A Plasma",0.340 ± 0.021 U/ml
same,Orgaran Neutralized,"[6]; 120 μg/ml Peptide, B Plasma",0.364 ± 0.013 U/ml
same,Orgaran Neutralized,"[6]; 120 μg/ml Peptide, C Plasma",0.318 ± 0.019 U/ml
same,Orgaran Neutralized,"[6]; 120 μg/ml Peptide, Citrate",0.136 ± 0.034 U/ml
